IC50 data for 23 compounds are collected here from patent US20240150365A1 (Hotspot Therapeutics, Inc., priority 2022, published 2024).

The IC50 is the point on the concentration scale where inhibition reaches its midpoint.

One experiment addresses T1, MALT1 (Homo sapiens, UniProt Q9UDY8).
T1 construct: Avi-tagged FL MALT-1 (Pharmaron, stored at −70° C.); Avi tag
T1 sequence (Q9UDY8 1-824): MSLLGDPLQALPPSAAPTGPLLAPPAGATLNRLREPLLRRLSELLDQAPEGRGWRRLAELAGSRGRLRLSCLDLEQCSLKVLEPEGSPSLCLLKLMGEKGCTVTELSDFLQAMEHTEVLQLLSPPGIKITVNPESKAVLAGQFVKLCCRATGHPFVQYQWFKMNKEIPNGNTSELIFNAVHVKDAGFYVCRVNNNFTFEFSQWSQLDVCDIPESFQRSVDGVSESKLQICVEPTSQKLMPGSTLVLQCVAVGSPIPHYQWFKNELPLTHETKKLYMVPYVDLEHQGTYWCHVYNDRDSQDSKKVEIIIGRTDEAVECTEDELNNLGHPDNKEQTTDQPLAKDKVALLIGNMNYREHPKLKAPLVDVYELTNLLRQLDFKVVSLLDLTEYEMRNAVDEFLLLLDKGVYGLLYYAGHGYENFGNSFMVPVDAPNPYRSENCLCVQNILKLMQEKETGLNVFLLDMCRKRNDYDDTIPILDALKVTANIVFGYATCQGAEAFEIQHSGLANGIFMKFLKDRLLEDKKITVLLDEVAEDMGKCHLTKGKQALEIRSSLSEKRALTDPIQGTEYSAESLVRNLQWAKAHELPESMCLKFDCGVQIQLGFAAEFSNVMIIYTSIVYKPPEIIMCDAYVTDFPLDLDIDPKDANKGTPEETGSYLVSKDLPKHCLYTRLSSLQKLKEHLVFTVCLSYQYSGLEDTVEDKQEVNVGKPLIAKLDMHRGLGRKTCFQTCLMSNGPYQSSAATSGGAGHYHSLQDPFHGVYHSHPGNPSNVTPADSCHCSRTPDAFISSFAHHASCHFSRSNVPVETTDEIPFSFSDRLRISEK
The experiment is described as follows: MALT-1 Fluorogenic Peptide Cleavage Assay (MALT1 inhibition assay). The note with it: Avi-tagged FL MALT-1, Ac-LRSR-AMC peptide substrate, 30 min pre-incubation, 90 min reaction. The experiment is classed as biochemical. The protocol: Inhibition of MALT1 activity by the presence of small molecules was evaluated using MALT-1 Fluorogenic Peptide Cleavage Assay. The assay utilizes a quenched AMC-labelled peptide that contains the MALT-1 recognition sequence and cleavage site (LRSR). MALT-1 mediated cleavage of the peptide relieves the quenching and leads to an increase in fluorescence at excitation (342 nm) and emission (441 nm). The following reagents were obtained commercially and used to prepare standard reagent formulations as further described below: […] The standard reagent formulations used in this assay were prepared and stored as follows. A 1.1 M solution of sodium citrate (161.3 g, 500 mL) was prepared and stored at room temperature. A 10% (w/v) CHAPS solution (2.0 g, 20 mL) was prepared and stored at 4° C. A 500 mM HEPES solution having pH of 6.89 was prepared from 200 mL of a 1 M HEPES solution having a pH of 7.5 using concentrated hydrochloric acid and brought to a final volume of 400 mL with […]® H2O. The substrate, 10 mM Ac-LRSR-AMC Peptide, was prepared (10 mg, 1.370 mL DMSO) and stored at -20° C. Compounds were plated to provide a 2% DMSO final concentration using a ProxiPlate-384 Plus F Black 384-shallow well microplate. The assay-ready plates were equilibrated to room temperature. […] DMSO was added only when compound plates had not been DMSO-backfilled to 2%. MALT-1 was thawed and kept on ice. Peptide substrate was thawed on the bench under ambient conditions. A MALT-1 enzyme working stock was prepared from Avi-tagged FL MALT-1 (40 nM in a prepared reagent volume of 16.5 μL) and the reaction buffer (13.0 mL). MALT1 working stock (5 μL) was added to each well of the microplate. MALT-1 was pre-incubated with compounds for 30 minutes at room temperature. […] The plates were covered and incubated on the bench at room temperature for 90 minutes. Fluorescence intensity was determined using a CLARIOstar microplate reader (BMG LABTECH) using the optimised AMC mode. Before taking readings, a 70% gain was applied on the neutral control well. Compound data were normalised to % Inhibition and used to plot sigmoidal concentration response curves to yield various parameters including IC50. […] Compounds in which an IC50 was not measured are designated as “N/A”.

A further experiment relates to NF-kB. The experiment is described as follows: NF-kB reporter assay in Jurkat cells stimulated with aCD3/aCD28/PMA. The note with it: Homo sapiens, Jurkat, Jurkat cells, 1 hr compound incubation, aCD3/aCD28/PMA stimulation 4 hr, One-Glo readout; read-out: NF-kB Reporter Assay IC50. The experiment is classed as cell-based. The procedure:
Jurkat cells were maintained in complete RPMI 1640 media supplemented with 10% FBS. Prior to the assay, 120 nL of the serial diluted compound was added in each well of 384-well flat bottom white plate (Corning #3570) by using liquid handler Echo550. Jurkat cells were harvested by centrifugation at 120 g for 10 min and resuspended in fresh RPMI 1640 media without serum. 30 μL of cells (25,000 cells) were seeded in each well of 384-well plate containing compound. After 1 hr incubation at 37° C. in a 5% CO2 incubator, 10 μL of diluted aCD3/aCD28/PMA (final concentration at 5 μg/mL, 5 μg/mL and 0.03 μg/mL, respectively) in RPMI 1640 without serum were added to each well. After incubation at 37° C. in 5% CO2 for 4 hr, 30 μL of One-Glo reagent (Promega #E6120) was added into each well. The plate was left at room temperature for 5 min and the signal was measured on EnVision (PerkinElmer).
Compounds in which an IC50 was not measured are designated as “N/A”.
Background: Reporter assays use an easily measured gene product as a stand-in for the process of interest.

Structures are written as SMILES. Some results are limits rather than exact numbers.

In the case of `CCc1ccc2cnn(C)c2c1NS(=O)(=O)c1ccc(-c2cc(C(F)(F)F)n[nH]2)nc1` [Example I-1], the half-inhibitory concentration (IC50) at MALT1 and in the experiment with NF-kB was < 0.4 µM throughout. Regarding `CCc1ccc2cnn(C)c2c1NS(=O)(=O)c1ccc(-n2cc(C(F)(F)F)cn2)nc1` [Example I-2], the IC50 at MALT1 and in the experiment with NF-kB was < 0.4 µM throughout.

In the case of `CCc1ccc2cnn(C)c2c1NS(=O)(=O)c1ccc(-n2cc(C(F)(F)F)c(C(=O)N(C)C)n2)nc1` [Example I-4], the concentration for half-maximal inhibition (IC50) at MALT1 was 0.4 to 1 µM. On to `CCc1ccc2cnn(C)c2c1NS(=O)(=O)c1ccc(-n2cc(C(F)(F)F)c(C(=O)N3CC(O)C3)n2)nc1` [Example I-5], for which the IC50 against MALT1 is < 0.4 µM.

Consider `CCc1ccc2cnn(C)c2c1N(C)S(=O)(=O)c1ccc(-n2cc(C(F)(F)F)cn2)nc1` [Example I-6], for which the half-maximal inhibitory concentration (IC50) at MALT1 and with NF-kB was < 0.4 µM each time. Take `CCc1ccc2cnn(C)c2c1NS(=O)(=O)c1ccc(-n2cc(C(F)(F)F)cn2)cn1` [Example I-7, N-(6-Ethyl-1-Methyl-1H-Indazol-7-yl)-5-(4-(Trifluoromethyl)-1H-Pyrazol-1-yl)Pyridine-2-Sulfonamide]: the half-inhibitory concentration (IC50) at MALT1 and in the experiment with NF-kB was 1 to 2.5 µM throughout. Take `CCc1ccc2cnn(C)c2c1NS(=O)(=O)c1cnc(-n2cc(C(F)(F)F)cn2)nc1` [Example I-8, N-(6-Ethyl-1-Methyl-1H-Indazol-7-yl)-2-(4-(Trifluoromethyl)-1H-Pyrazol-1-yl)Pyrimidine-5-Sulfonamide]: the IC50 against MALT1 and in the experiment on NF-kB was > 2.5 µM throughout. For `CCc1ccc2cnn(C)c2c1NS(=O)(=O)c1ccc(-n2cc(C(F)(F)F)cn2)nn1` [Example I-9, N-(6-Ethyl-1-Methyl-1H-Indazol-7-yl)-6-(4-(Trifluoromethyl)-1H-Pyrazol-1-yl)Pyridazine-3-Sulfonamide], the IC50 against MALT1 and in the experiment on NF-kB was > 2.5 µM each time. As for `COc1ccc2cnn(C)c2c1NS(=O)(=O)c1ccc(-n2cc(C(F)(F)F)cn2)nc1` [Example I-10, N-(6-Methoxy-1-Methylindazol-7-yl)-6-[4-(Trifluoromethyl) Pyrazol-1-yl]pyridine-3-Sulfonamide], the IC50 at MALT1 and in the experiment with NF-kB was < 0.4 µM in each case. Consider `COc1ccc2cnn(C)c2c1NS(=O)(=O)c1ccc(-n2cc(C3CC3)cn2)nc1` [Example I-11, 6-(4-Cyclopropyl-1H-Pyrazol-1-yl)-N-(6-Methoxy-1-Methyl-1H-Indazol-7-yl)Pyridine-3-Sulfonamide], for which the concentration for half-maximal inhibition (IC50) against MALT1 and in the experiment with NF-kB was < 0.4 µM throughout. In the case of `COc1ccc2cnn(C)c2c1NS(=O)(=O)c1ccc(-n2cc(Cl)cn2)nc1` [Example I-13, 6-(4-Chloro-1H-Pyrazol-1-yl)-N-(6-Methoxy-1-Methyl-1H-Indazol-7-yl)Pyridine-3-Sulfonamide], the IC50 on MALT1 and in the experiment on NF-kB was < 0.4 µM throughout. In the case of `COc1ccc2cnn(C)c2c1NS(=O)(=O)c1ccc(-n2cc(C)cn2)nc1` [Example I-14, N-(6-Methoxy-1-Methyl-1H-Indazol-7-yl)-6-(4-Methyl-1H-Pyrazol-1-yl)Pyridine-3-Sulfonamide], the IC50 against MALT1 and in the experiment on NF-kB was < 0.4 µM each time.

For the compound `COc1ccc2cnn(C)c2c1NS(=O)(=O)c1ccc(-n2cccn2)nc1` [Example I-15, N-(6-Methoxy-1-Methyl-1H-Indazol-7-yl)-6-(1H-Pyrazol-1-yl) Pyridine-3-Sulfonamide], the half-maximal inhibitory concentration (IC50) on MALT1 was 1 to 2.5 µM; with NF-kB, < 0.4 µM. In the case of `COc1ccc2cnn(C)c2c1NS(=O)(=O)c1ccc(-n2ccc(C(F)(F)F)n2)nc1` [Example I-16], the IC50 on MALT1 and in the experiment on NF-kB was < 0.4 µM in each case.

Turning to `Cn1ncc2ccc(C3CC3)c(NS(=O)(=O)c3ccc(-n4cc(Cl)cn4)nc3)c21` [Example I-17], the half-inhibitory concentration (IC50) against MALT1 and in the experiment with NF-kB was < 0.4 µM each time.

`COc1ccc2cnn(C)c2c1NS(=O)(=O)c1ccc(-c2cc(C(F)(F)F)nn2C)nc1` [Example I-18, N-(6-Methoxy-1-Methylindazol-7-yl)-6-[2-Methyl-5-(Trifluoromethyl)Pyrazol-3-yl]pyridine-3-Sulfonamide]: the IC50 against MALT1 and in the experiment on NF-kB was < 0.4 µM throughout. For the compound `COc1ccc2cnn(C)c2c1NS(=O)(=O)c1ccc(-c2ccn(C)n2)nc1` [Example I-19, N-(6-Methoxy-1-Methylindazol-7-yl)-6-(1-Methylpyrazol-3-yl)Pyridine-3-Sulfonamide], the 50% inhibitory concentration (IC50) at MALT1 is > 2.5 µM; with NF-kB, < 0.4 µM. The corresponding values for `COc1ccc2cnn(C)c2c1NS(=O)(=O)c1ccc(-c2cnn(C)c2)nc1` [Example I-20, N-(6-Methoxy-1-Methylindazol-7-yl)-6-(1-Methylpyrazol-4-yl)Pyridine-3-Sulfonamide] are 1 to 2.5 µM and 0.4 to 1 µM. On the same counts, the results for `COc1ccc2cnn(C)c2c1NS(=O)(=O)c1ccc(-c2cn(C)nn2)nc1` [Example I-21, N-(6-Methoxy-1-Methyl-1H-Indazol-7-yl)-6-(1-Methyl-1H-1,2,3-Triazol-4-yl)Pyridine-3-Sulfonamide] are > 2.5 µM and < 0.4 µM. On the same counts, the results for `COc1ccc2cnn(C)c2c1NS(=O)(=O)c1ccc(-c2cc(C(F)(F)F)n[nH]2)nc1` [Example I-22, N-(6-Methoxy-1-Methylindazol-7-yl)-6-[5-(Trifluoromethyl)-2H-Pyrazol-3-yl]pyridine-3-Sulfonamide] are < 0.4 µM and < 0.4 µM.

Consider `CCc1ccc2cnn(C)c2c1NS(=O)(=O)c1ccc(-c2ccc(C(=O)OC)c(Cl)c2)nc1` [Example I-45, Methyl 2-Chloro-4-(5-(N-(6-Ethyl-1-Methyl-1H-Indazol-7-yl)Sulfamoyl)Pyridin-2-yl)Benzoate], for which the IC50 at MALT1 is < 0.4 µM.

For the compound `CCc1ccc2cnn(C)c2c1NS(=O)(=O)c1ccc(-c2ccnc(C(F)(F)F)c2)nc1` [Example I-46, N-(6-Ethyl-1-Methyl-1H-Indazol-7-yl)-2′-(Trifluoromethyl)-[2,4′-Bipyridine]-5-Sulfonamide], the IC50 against MALT1 is < 0.4 µM. Same read-out and setting: in the case of `CCc1ccc2cnn(C)c2c1NS(=O)(=O)c1ccc(-c2ccncc2)nc1` [Example I-47, N-(6-Ethyl-1-Methyl-1H-Indazol-7-yl)-[2,4′-Bipyridine]-5-Sulfonamide] it was 1 to 2.5 µM.
